Experimental data reported in US20110263594A1, “NOVEL TRIAZOLO(4,3-A)PYRIDINE DERIVATIVES, PROCESS FOR THE PREPARATION THEREOF, USE THEREOF AS MEDICAMENTS, PHARMACEUTICAL COMPOSITIONS AND NOVEL USE, IN PARTICULAR AS MET INHIBITORS” (SANOFI-AVENTIS, priority 2008, published 2011).
Counter-ions that a name gives are not always drawn.

Tests used:
MET [1] = target: T1, MET (Homo sapiens, UniProt P08581); experiment: Test A: HTRF MET assay in 96-well format; format: biochemical; design: The His-Tev-MET (956-1390) recombinant DNA in pFastBac (Invitrogen) is transfected into insect cells; His-Tev (histidine tag with TEV cleavage site) (N, cleaved yes); made in house; host or cells: SF21 insect cells (baculovirus, pFastBac); details: MET 5 nM, 10 μM ATP, poly-(GAT)
Experimental: The His-Tev-MET (956-1390) recombinant DNA in pFastBac (Invitrogen) is transfected into insect cells and, after several viral amplification steps, the final baculovirus stock is tested for the expression of the protein of interest.
After infection for 72 h at 27° C. with the recombinant virus, SF21 cell cultures are harvested by centrifugation and the cell pellets are stored at −80° C.
The cell pellets are resuspended in the lysis buffer (buffer A [50 mM HEPES, pH 7.5, 250 mM NaCl, 10% glycerol, 1 mM TECP]; +cocktail of protease inhibitors, Roche Diagnostics, without EDTA, ref 1873580), stirred at 4° C. until the mixture is homogeneous, and then lysed mechanically using a “Dounce” type apparatus.
After centrifugation, the lysis supernatant is incubated for 2 h at 4° C. with nickel chelate resin (His-Trap 6 Fast Flow™, GE HealthCare). After washing with 20 volumes of buffer A, the suspension is packed into a column, and the proteins are eluted with a gradient of buffer B (buffer A+290 mM imidazole).
The fractions containing the protein of interest, for the purpose of electrophoretic analysis (SDS PAGE), are combined, concentrated by ultrafiltration (10 kDa cut-off) and injected onto an exclusion chromatography column (Superdex™ 200, GE HealthCare) equilibrated in buffer A.
After enzymatic cleavage of the histidine tag, the protein is reinjected onto a new IMAC nickel chelate chromatography column (His-Trap 6 Fast Flow™, GE HealthCare) equilibrated in buffer A. The fractions eluted with a gradient of buffer B and containing the protein of interest after electrophoresis (SDS PAGE) are finally combined and stored at −80° C.
For the production of autophosphorylated protein, the previous fractions are incubated for 1 h at ambient temperature after the addition of 2 mM ATP, 2 mM MgCl2 and 4 mM Na3VO4. After the reaction has been stopped with 5 mM of EDTA, the reaction mixture is injected onto a HiPrep desalifying column (GE HealthCare) pre-equilibrated in buffer A+4 mM Na3VO4, and the fractions containing the protein of interest (SDS PAGE analysis) are combined and stored at −80° C. The degree of phosphorylation is verified by mass spectrometry (LC-MS) and by peptide mapping.
MET at a final concentration of 5 nM is incubated in a final volume of 50 μl of enzymatic reaction in the presence of the test molecule (for a final concentration range of from 0.17 nM to 10 μM, 3% DMSO final concentration) in 10 mM MOPS buffer, pH 7.4, 1 mM DTT, 0.01% Tween 20. The reaction is initiated with the substrate solution to obtain final concentrations of 1 μg/ml poly-(GAT), 10 μM ATP and 5 mM MgCl2. After incubation for 10 min at ambient temperature, the reaction is stopped with a 30 μl mix so as to obtain a final solution of 50 mM Hepes, pH 7.5, 500 mM potassium fluoride, 0.1% BSA and 133 mM EDTA in the presence of 80 ng of streptavidin 61SAXLB Cis-Bio Int. and 18 ng of anti-phosphotyrosine Mab PT66-Europium Cryptate per well. After incubation for 2 hours at ambient temperature, the reading is taken at 2 wavelengths, 620 nm and 665 nm, on a reader for the TRACE/HTRF technique, and the % inhibition is calculated from the 665/620 ratios.
Target sequence in this assay (P08581 956-1390): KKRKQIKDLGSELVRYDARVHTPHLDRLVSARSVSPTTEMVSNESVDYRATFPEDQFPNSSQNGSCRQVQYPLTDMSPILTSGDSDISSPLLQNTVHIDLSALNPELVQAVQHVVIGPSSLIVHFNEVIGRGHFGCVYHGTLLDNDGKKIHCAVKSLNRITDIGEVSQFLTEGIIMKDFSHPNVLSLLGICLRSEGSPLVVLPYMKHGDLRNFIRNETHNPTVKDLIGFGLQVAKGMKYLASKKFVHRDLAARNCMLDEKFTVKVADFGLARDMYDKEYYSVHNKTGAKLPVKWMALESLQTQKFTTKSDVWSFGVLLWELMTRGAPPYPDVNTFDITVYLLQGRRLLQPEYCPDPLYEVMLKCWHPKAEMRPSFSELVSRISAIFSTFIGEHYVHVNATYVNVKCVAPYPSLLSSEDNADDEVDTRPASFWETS

[2] = test system: HCT116 cells and MKN45 cells; experiment: Test C: measurement of cell proliferation by 14C-thymidine pulse; format: cell-based; details: 14C-thymidine incorporation, 96 h of treatment; cell line not given
Experimental: The cells are seeded into Cytostar 96-well plates in 180 μl for 4 hours at 37° C. and 5% CO2: HCT116 cells in a proportion of 2500 cells per well in DMEM medium+10% foetal calf serum+1% L-glutamine, and MKN45 cells in a proportion of 7500 cells per well in RPMI medium+10% foetal calf serum+1% L-glutamine. After these 4 hours of incubation, the products are added in 10 μl as a […] concentrated solution according to the dilution method mentioned for the ELISA. The products are tested at 10 concentrations in duplicate from 10 000 nM to 0.3 nM with an increment of 3.
After treatment for 72 h, 10 μl of ^14C-thymidine at 10 μCi/ml are added so as to obtain 0.1 μCi per well. The ^14C-thymidine incorporation is measured on a Micro-Beta machine (Perkin-Elmer) after 24 hours of pulse and 96 h of treatment.
All the steps of the assay are automated on BIOMEK 2000 or TECAN stations.

MET [3] = target: T1, MET; experiment: Test B: inhibition of the autophosphorylation of MET, ELISA technique (pppY1230,1234,1235) in MKN45 cells; format: cell-based; design: endogenous in cells; host or cells: MKN45 cells; details: 1 h treatment, phosphoMET ELISA
Experimental: B) Test B: Inhibition of the autophosphorylation of MET; ELISA technique (pppY1230,1234,1235) a) Cell lysates: MKN45 cells are seeded into 96-well plates (cell coat BD polylysine) at 20 000 cells/well in 200 μl in RPMI medium+10% FCS+1% L-glutamine. They are left to adhere for 24 hours in an incubator.
The cells are treated the day after seeding with the products at 6 concentrations, in duplicate, for 1 h. At least 3 control wells are treated with the same final amount of DMSO.
Product dilution: Stock at 10 mM in pure DMSO—range from 10 mM to 30 μM with an increment of 3 in pure DMSO—intermediate dilutions to 1/50 in culture medium and then removal of 10 μl added directly to the cells (200 μl): final range of 10 000 to 30 nM.
At the end of the incubation, the supernatant is carefully removed and rinsing is performed with 200 μl of PBS. Next, 100 μl of lysis buffer are placed directly in the wells on ice and incubated at 4° C. for 30 minutes. Lysis buffer: 10 mM Tris HCl, pH 7.4, 100 mM NaCl, 1 mM EDTA, 1 mM EGTA, 1% Triton X-100, 10% glycerol, 0.1% SDS, 0.5% deoxycholate, 20 mM NaF, 2 mM Na3VO4, 1 mM PMSF and cocktail of antiproteases.
The 100 μl of lysates are transferred into a V-bottomed polypropylene plate and the ELISA is performed immediately, or the plate is frozen at −80° C.
70 μl of kit dilution buffer+30 μL of cell lysate, or 30 μl of lysis buffer for the blanks, are added to each well of the kit plate. Incubation is carried out for 2 h with gentle agitation at ambient temperature.
The wells are rinsed 4 times with 400 μl of kit washing buffer. Incubation is carried out with 100 μl of anti-phospho MET antibody for 1 hour at ambient temperature.
The wells are rinsed 4 times with 400 μl of kit washing buffer. Incubation is carried out with 100 μl of anti-rabbit HRP antibody for 30 minutes at ambient temperature (except for the wells of chromogen alone).
The wells are rinsed 4 times with 400 μl of kit washing buffer. 100 μL of chromogen are introduced and incubation is carried out for 30 minutes in the dark at ambient temperature.
The reaction is stopped with 100 μl of stop solution. The plate is read without delay at […], 0.1 second on a Wallac Victor plate reader.
Target sequence in this assay (P08581 25-1390): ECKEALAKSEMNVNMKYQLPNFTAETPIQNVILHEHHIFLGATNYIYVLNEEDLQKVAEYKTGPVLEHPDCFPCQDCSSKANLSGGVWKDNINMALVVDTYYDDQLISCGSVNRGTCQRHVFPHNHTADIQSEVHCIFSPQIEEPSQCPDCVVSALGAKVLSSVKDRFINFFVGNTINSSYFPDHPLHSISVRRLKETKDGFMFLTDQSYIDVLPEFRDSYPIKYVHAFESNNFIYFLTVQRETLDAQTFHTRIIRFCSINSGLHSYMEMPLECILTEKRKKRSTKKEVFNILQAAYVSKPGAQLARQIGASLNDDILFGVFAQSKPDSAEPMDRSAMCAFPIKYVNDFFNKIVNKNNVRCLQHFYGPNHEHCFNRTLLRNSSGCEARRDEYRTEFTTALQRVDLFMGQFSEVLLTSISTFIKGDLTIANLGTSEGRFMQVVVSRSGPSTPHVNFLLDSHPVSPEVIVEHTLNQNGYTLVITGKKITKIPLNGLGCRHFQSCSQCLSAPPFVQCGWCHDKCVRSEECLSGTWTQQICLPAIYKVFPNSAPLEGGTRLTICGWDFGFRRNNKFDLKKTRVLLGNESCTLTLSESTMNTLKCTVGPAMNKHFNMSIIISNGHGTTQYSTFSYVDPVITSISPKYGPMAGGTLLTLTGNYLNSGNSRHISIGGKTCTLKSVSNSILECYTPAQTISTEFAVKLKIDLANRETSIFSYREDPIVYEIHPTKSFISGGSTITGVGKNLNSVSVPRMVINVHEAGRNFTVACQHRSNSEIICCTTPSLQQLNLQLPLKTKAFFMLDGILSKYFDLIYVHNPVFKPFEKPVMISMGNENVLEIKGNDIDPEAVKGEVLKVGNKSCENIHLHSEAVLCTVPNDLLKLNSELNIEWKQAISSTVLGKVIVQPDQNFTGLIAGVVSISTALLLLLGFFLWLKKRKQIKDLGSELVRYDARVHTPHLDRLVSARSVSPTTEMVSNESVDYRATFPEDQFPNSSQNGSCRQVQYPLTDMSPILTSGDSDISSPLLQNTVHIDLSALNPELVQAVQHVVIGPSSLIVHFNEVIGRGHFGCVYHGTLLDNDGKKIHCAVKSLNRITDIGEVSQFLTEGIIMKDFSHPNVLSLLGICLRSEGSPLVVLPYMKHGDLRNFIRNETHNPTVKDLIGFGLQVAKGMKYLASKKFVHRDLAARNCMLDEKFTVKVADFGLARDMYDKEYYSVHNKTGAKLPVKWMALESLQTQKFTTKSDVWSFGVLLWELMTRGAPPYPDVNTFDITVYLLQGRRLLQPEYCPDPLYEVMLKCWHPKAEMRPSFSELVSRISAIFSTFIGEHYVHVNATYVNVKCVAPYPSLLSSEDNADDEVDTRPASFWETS

Structure (SMILES) | melting point | IC50 (MET [1]) | IC50 [2] | IC50 (MET [3])
O=C(Nc1nc2ccc(Sc3nnc4ccc(-c5cnn(C6CCNCC6)c5)cn34)cc2s1)C1CC1 (as salt: hydrochloride) [Example 16, N-(6-{[6-(1-piperidin-4-yl-1H-pyrazol-4-yl)[1,2,4]triazolo[4,3-a]pyridin-3-yl]sulphanyl}-1,3-benzothiazol-2-yl)cyclopropanecarboxamide] | > 260 °C | – | – | –
Nc1nc2ccc(Sc3nnc4ccccn34)cc2s1 [Example 1, 6-([1,2,4]triazolo[4,3-a]pyridin-3-ylsulphanyl)-1,3-benzothiazol-2-amine] | 260 to 266 °C | < 500 nM | – | –
O=C(Nc1nc2ccc(Sc3nnc4ccccn34)cc2s1)C1CC1 [Example 2, N-[6-([1,2,4]triazolo[4,3-a]pyridin-3-ylsulphanyl)-1,3-benzothiazol-2-yl]cyclopropanecarboxamide] | 187 to 190 °C | < 100 nM | < 1000 nM | > 500 nM
O=C(NCCN1CCOCC1)Nc1nc2ccc(Sc3nnc4ccccn34)cc2s1 [Example 3, 1-[2-(morpholin-4-yl)ethyl]-3-[6-([1,2,4]triazolo[4,3-a]pyridin-3-ylsulphanyl)-1,3-benzothiazol-2-yl]urea] | 204 to 207 °C | < 100 nM | < 1000 nM | < 100 nM
CN1CCN(CCNC(=O)Nc2nc3ccc(Sc4nnc5ccccn45)cc3s2)CC1 [Example 4, 1-[2-(4-methylpiperazin-1-yl)ethyl]-3-[6-([1,2,4]triazolo[4,3-a]pyridin-3-ylsulphanyl)-1,3-benzothiazol-2-yl]urea] | 180 to 185 °C | < 100 nM | < 1000 nM | < 100 nM
COCCNC(=O)Nc1nc2ccc(Sc3nnc4ccccn34)cc2s1 [Example 5, 1-(2-methoxyethyl)-3-[6-([1,2,4]triazolo[4,3-a]pyridin-3-ylsulphanyl)-1,3-benzothiazol-2-yl]urea] | 252 to 257 °C | < 100 nM | < 1000 nM | < 100 nM
Nc1nc2ccc(Sc3nnc4ccc(I)cn34)cc2s1 [Example 6, 6-[(6-iodo[1,2,4]triazolo[4,3-a]pyridin-3-yl)sulphanyl]-1,3-benzothiazol-2-amine] | – | < 100 nM | < 1000 nM | –
Nc1nc2ccc(Sc3nnc4ccc(-c5ccc(F)cc5)cn34)cc2s1 [Example 7, 6-{[6-(4-fluorophenyl)[1,2,4]triazolo[4,3-a]pyridin-3-yl]sulphanyl}-1,3-benzothiazol-2-amine] | > 264 °C | < 100 nM | < 1000 nM | < 100 nM
O=C(Nc1nc2ccc(Sc3nnc4ccc(-c5ccc(F)cc5)cn34)cc2s1)C1CC1 [Example 8, N-{6-[6-(4-fluorophenyl)[1,2,4]triazolo[4,3-a]pyridin-3-ylsulphanyl]-1,3-benzothiazol-2-yl}cyclopropanecarboxamide] | – | < 100 nM | < 1000 nM | < 100 nM
Cn1cc(-c2ccc3nnc(Sc4ccc5nc(N)sc5c4)n3c2)cn1 [Example 9, 6-{[6-(1-methyl-1H-pyrazol-4-yl)[1,2,4]triazolo[4,3-a]pyridin-3-yl]sulphanyl}-1,3-benzothiazol-2-amine] | – | < 100 nM | < 1000 nM | > 500 nM
Cn1cc(-c2ccc3nnc(Sc4ccc5nc(NC(=O)C6CC6)sc5c4)n3c2)cn1 [Example 10, N-(6-{[6-(1-methyl-1H-pyrazol-4-yl)[1,2,4]triazolo[4,3-a]pyridin-3-yl]sulphanyl}-1,3-benzothiazol-2-yl)cyclopropanecarboxamide] | – | < 100 nM | < 1000 nM | < 100 nM
O=C(Nc1nc2ccc(Sc3nnc4ccc(-c5cnn(CCOC6CCCCO6)c5)cn34)cc2s1)C1CC1 (stereo not shown) [Example 14, N-(6-{[6-(1-[2-(tetrahydro-2H-pyran-2-yloxy)ethyl]-1H-pyrazol-4-yl)[1,2,4]triazolo[4,3-a]pyridin-3-yl]sulphanyl}-1,3-benzothiazol-2-yl)cyclopropanecarboxamide] | – | < 100 nM | < 1000 nM | < 100 nM
O=C(Nc1nc2ccc(Sc3nnc4ccc(-c5cnn(CCO)c5)cn34)cc2s1)C1CC1 [Example 15, N-(6-{[6-(1-(2-hydroxyethyl)-1H-pyrazol-4-yl)[1,2,4]triazolo[4,3-a]pyridin-3-yl]sulphanyl}-1,3-benzothiazol-2-yl)cyclopropanecarboxamide] | – | < 100 nM | < 1000 nM | < 100 nM
O=C(Nc1nc2ccc(Sc3nnc4ccc(-c5cnn(C6CCNCC6)c5)cn34)cc2s1)C1CC1 [Example 16, N-(6-{[6-(1-piperidin-4-yl-1H-pyrazol-4-yl)[1,2,4]triazolo[4,3-a]pyridin-3-yl]sulphanyl}-1,3-benzothiazol-2-yl)cyclopropanecarboxamide] | – | < 100 nM | < 1000 nM | < 100 nM
